Experimental data from article doi:10.1101/2025.07.20.665728 (bioRxiv, 2025).

Legend:
Type in all cases: cell-based
MAIT cells in human PBMC [1] = assay: Primary MAIT activation (CD69) in PBMCs; conditions: 16 h, ligand alone
[2] = system: SKW-3 cells expressing MBV28 (TRAV1-2/TRBV28) TCR; assay: MAIT cell activation assay, SKW-3 MBV28 TCR co-cultured with C1R.MR1; conditions: SKW-3 MBV28, ligand alone
Description: (§1) Next, we explored whether RF catabolites could activate SKW-3 cells expressing two different MAIT TCRs. Distinct responses of T cells expressing TCRs with varying TRBV chain usage reinforces the role of Vβ in modulating MAIT responses to various ligands ([Chancellor et al., 2023]; [Gherardin et al., 2016]; [Seneviratna et al., 2022]).The surface expression of CD69 was measured as a marker for activation of cells expressing the AF-7 (TRAV1-2/TRBV6-1) or MBV28 (TRAV1-2/TRBV28) TCRs after co-culture with C1R.MR1 cells and the ligands.
(§2) C1R.MR1 cells (1 x 10^5) were initially stained with CTV for 15 minutes and then incubated with RF catabolites for 20 h. […] Cells were subsequently stained with PE-Cy7-conjugated anti-CD69 (BD; 1:100) and PE-labelled anti-MR1 (26.5 clone; BD; 1:100), before analysis on LSRFortessa (BD Biosciences) flow cytometer. Activation of SKW-3-MAIT cells was reflected by the cell-surface CD69 expression.

MAIT cells in human PBMC [3] = assay: MAIT cell proliferation in CTV-labeled PBMCs; conditions: day 7, 5-OP-RU 10 μM, RF ligands 100 μM
[4] = system: SKW-3 cells expressing AF-7 (TRAV1-2/TRBV6-1) TCR; assay: MAIT cell activation assay, SKW-3 AF-7 TCR co-cultured with C1R.MR1; conditions: SKW-3 AF-7, ligand alone
Description: as §1, §2

C1R.MR1^R9H cells = assay: Cell surface MR1 R9H quantification, C1R.MR1^R9H
Text: We then tested the effect of the RF catabolites on the expression of two mutant versions of MR1 termed MR1^R9H ([Howson et al., 2020]) and MR1^K43A ([Reantragoon et al., 2013]). First, we tested the MR1^R9H mutant ([Howson et al., 2020]) which represents a rare, natural human polymorph. […] When C1R. […] Next, we tested sought to understand how the previously characterised Lys43A mutation affects ligand binding. […] While this is in line with the ability of these ligands to bind MR1, the reason for MR1^K43A cell surface accumulation is less clear. The most likely explanation is that these ligands bind ER-resident MR1^K43A, in line with our data using wild-type MR1; however, because the K43A mutation results in spontaneous MR1 surface egress, the presence of these stabilising ligands promotes enhanced trafficking and/or retention at the cell surface. We cannot rule out however that the ligands may also bind directly to surface MR1^K43A and slow down the recycling from cell surface.
The level of MR1 expressed on the cell surface was measured after the exposure to the investigated ligands as previously described ([Awad et al., 2020a]; [Wang et al., 2022a]). […] The PE fluorescence intensity reflects the surface MR1 level. The data was acquired with an LSRFortessa X-20 (BD Biosciences) and Diva software (BD Biosciences) and analyzed using FlowJo software (BD Biosciences).

C1R.MR1 cells [5] = assay: Intracellular total folded MR1 by flow cytometry (8F2.F9); conditions: C1R.MR1, 100 μM, 16 h
C1R.MR1 cells [6] = assay: Endo H treatment and western blot of intracellular MR1; conditions: C1R.MR1, 16 h; RF and catabolites 100 μM, Ac-6-FP 10 μM
Description: The downregulation of MR1 on the cell surface by the RF catabolites could be due to the depletion of the intracellular ER-resident MR1 pool, or by retention of MR1 in the ER, as shown for the DB28 ligand ([Salio et al., 2020]). To investigate this, C1R.MR1 cells were treated for 16 h with 100 μM of RF or RF catabolites, conditions which induce MR1 downregulation (Fig. 3A). Cells were lysed, and treated with endoglycosidase (Endo) H, to distinguish molecules that remain within the ER from those that have trafficked to the cell surface ([McWilliam et al., 2016]), then MR1 levels were assessed by immunoblotting (Fig. 3A).
Figure 3. […] S, Endo H–susceptible MR1; R, Endo H–resistant MR1. The Endo H–susceptible MR1 and Endo H–resistant MR1 fractions were quantified in at least two independent experiments. (b) Intracellular total MR1 level was also measured in C1R.MR1 cells by flow cytometry after treating the cells with the indicated ligands (100 μM) for 16h followed by permeabilization and staining with anti-MR1-PE (8F2.F9). Shown are the overlay histograms (top) and a bar chart depicting the geometric mean fluorescence intensity (gMFI) fold change of intracellular MR1 level (bottom) from three independent experiments performed in duplicates, with standard error (SEM) represented by the error bars. […]

SMILES | CD69 expression on gated MAIT cells (MAIT cells in human PBMC [1]) | CD69 surface expression (activation) [2] | MAIT cell proliferation (MAIT cells in human PBMC [3]) | CD69 surface expression (activation) [4] | MR1^R9H surface level (C1R.MR1^R9H cells) | total level of folded MR1 (intracellular staining with 8F2.F9) (C1R.MR1 cells [5]) | Endo H-resistant MR1 (C1R.MR1 cells [6])
CC(=O)C=Nc1c(NC[C@H](O)[C@H](O)[C@H](O)CO)[nH]c(=O)[nH]c1=O [5-OP-RU, 5-(2-oxopropylideneamino)-6-D-ribitylaminouracil, reference compound] | induced robust CD69 upregulation | induced strong activation | significantly proliferated | induced strong activation |  |  | 
Nc1nc2ncc(C=O)nc2c(=O)[nH]1 [6-FP, 6-formylpterin, reference compound] |  | moderately reduced basal CD69 levels |  | moderately reduced basal CD69 levels |  |  | 
CC(=O)Nc1nc2ncc(C=O)nc2c(=O)[nH]1 [Ac-6-FP, acetyl-6-FP, reference compound] |  |  |  |  | significantly increased | significantly increased | increase in MR1 of a higher molecular weight
